# Marks after values point to notes of the source that are not given here.
# Assays:
# [1] = CLint in human liver microsomes (reaction phenotyping, no inhibitor); type: in vitro ADME; conditions: HLMs
# Description: (§1) Reaction phenotyping using cDNA expressed recombinant human CYP isoforms, CYP1A2, CYP2B6, CYP2C8, CYP2C9, CYP2C19, CYP2D6, and CYP3A4, was conducted. Each recombinant enzyme (100 pmol/ml) in potassium phosphate buffer (pH 7.4; 100 mmol/L for CYP3A4, 50 mmol/L for the others) was preincubated with [^3H]THY1773 (10 μmol/L) at 37°C for 5 min. The reactions were initiated by the addition of NADPH‐generating system (1 mmol/L NADP^+, 5 mmol/L G‐6‐P, 1 unit/ml G‐6‐PDH, and 5 mmol/L MgCl2) and incubated for 0 or 60 min. The reactions were terminated by the addition of an equal volume of acetonitrile/methanol (9:1, vol/vol), followed by centrifugation at 1650 × g for 10 min at 4°C. An aliquot of the supernatant was subjected to an Agilent 1200 HPLC system (Agilent Technologies, Inc.) equipped with a radiochemical flow detector (Radiomatic 625TR; Perkin Elmer, Inc.), and formation of metabolites was evaluated. […] The CLint was calculated by the method as described previously under metabolic stability in animal liver microsomes, and the fraction metabolized (fm) was calculated by Equation (1): (1) fm=1−(CLint, with inh/CLint) where CLint is intrinsic clearance without specific inhibitor and CLint,with inh is intrinsic clearance in the presence of specific inhibitor.
# human V1B receptor = biological target: T1, human V1B receptor (Homo sapiens, UniProt P47901); assay: In vitro [3H]AVP binding assay, membranes of 1321-N1 cells expressing human V1B receptor; conditions: 1321-N1 cell membranes, read-out: EC50 of RO model (Ki value for human V1B receptor binding inhibition)
# T1 construct: expressed in transfected cells; host or cells: 1321-N1 cells (membranes)
# T1 sequence (P47901 1-424): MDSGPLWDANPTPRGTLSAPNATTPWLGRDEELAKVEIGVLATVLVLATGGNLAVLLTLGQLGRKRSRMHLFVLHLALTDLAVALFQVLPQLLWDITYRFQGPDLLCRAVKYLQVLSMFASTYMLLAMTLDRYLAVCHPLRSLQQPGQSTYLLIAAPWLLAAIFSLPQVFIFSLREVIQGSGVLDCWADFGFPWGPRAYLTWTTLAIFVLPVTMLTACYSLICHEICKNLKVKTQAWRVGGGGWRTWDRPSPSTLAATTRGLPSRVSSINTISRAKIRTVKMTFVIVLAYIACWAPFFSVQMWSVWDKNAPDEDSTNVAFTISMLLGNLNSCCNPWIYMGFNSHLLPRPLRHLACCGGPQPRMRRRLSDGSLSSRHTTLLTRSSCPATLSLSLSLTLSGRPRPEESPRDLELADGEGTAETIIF
# [2] = biological target: T2, rat anterior pituitary membrane V1B receptor (Rattus norvegicus, UniProt P48974); assay: In vitro binding, rat anterior pituitary membrane V1B receptor; conditions: unpublished data
# T2 construct: rat anterior pituitary membrane V1B receptor; from tissue; host or cells: rat anterior pituitary membranes
# T2 sequence (P48974 1-425): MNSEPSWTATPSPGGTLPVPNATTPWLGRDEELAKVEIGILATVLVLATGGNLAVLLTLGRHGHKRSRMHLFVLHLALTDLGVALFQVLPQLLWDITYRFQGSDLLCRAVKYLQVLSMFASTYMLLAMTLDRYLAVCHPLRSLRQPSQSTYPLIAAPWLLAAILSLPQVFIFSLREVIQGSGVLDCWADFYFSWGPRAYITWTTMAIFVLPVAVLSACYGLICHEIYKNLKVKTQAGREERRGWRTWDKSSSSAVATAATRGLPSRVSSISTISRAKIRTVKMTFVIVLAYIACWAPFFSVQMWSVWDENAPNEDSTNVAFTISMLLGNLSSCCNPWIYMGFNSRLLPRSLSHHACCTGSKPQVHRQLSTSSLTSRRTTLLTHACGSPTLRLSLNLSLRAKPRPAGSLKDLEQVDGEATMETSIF
# CYP3A = assay: Reaction phenotyping in HLMs with ketoconazole; type: in vitro ADME, human
# Description: as §1
structure (smiles),measurement,setting,value
CC(C)NC(=O)Cn1c(-c2cccc(Cl)c2)nn(-c2ccc(CCN3CCOCC3)cc2)c1=O [THY1773],CLint,"[1]; 500 nmol/L, no inhibitor",11.2 ± 0.898 µL/min/mg
same,"CLint (PBPK input, Model 1)",[1]; experimental data,11.2 (Model 1) μl/min/mg protein
same,Ki,human V1B receptor,3.51 nM
same,Ki,[2],80.1 nM
same,fm (fraction metabolized),"CYP3A; by CYP3A, ketoconazole 1 μmol/L",0.914
same,CLint,"CYP3A; with ketoconazole 1 μmol/L, mean of duplicate",0.961 ^a μl/min/mg
